From patent US10253002B2, “Compounds and methods of treating infections” (Neoculi Pty Ltd., priority 2013, dated 2019)
Values after ≈ are worked out from the molar mass of the structure shown. Where two headings read alike, the source gives them in different places.

What was measured:
[1] = test system: S. pneumoniae isolates; assay: Micro-broth dilution MIC, Example 5; type: cell-based, Streptococcus pneumoniae; settings: Streptococcus pneumoniae, read-out: Relative MIC with media type for D39, D39; 10% horse serum-supplemented broth
In short: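 Pneumococcal isolates grown overnight on horse blood agar, tested by 1:2 serial broth microdilution in 4% lysed horse blood/cation-adjusted Mueller-Hinton broth at 37 °C, 5% CO2. MIC50/MIC90 and MBC50/MBC90 taken per CLSI as the 50th/90th-percentile concentrations across isolates.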

[2] = test system: MRSA; assay: Broth microdilution MIC, Example 7 (NCL812 and analogues); type: cell-based, Staphylococcus aureus; settings: for MIC: Staphylococcus aureus, MRSA
In short: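 MICs in μg/ml were read as growth inhibition by eye, checked at 600 nm absorbance against drug-free wells, following CLSI broth microdilution. Strains: two MRSA, two VRE; duplicates, repeated once more when results diverged beyond one dilution step.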

N=C(N/N=C/c1ccc(Cl)cc1)N/N=C/c1ccc(Cl)cc1 [NCL812, 1,3-bis[(E)-(4-chlorophenyl)methyleneamino]guanidine]
MIC [1]: 32 mg/L (≈ 95.7 µM)
MIC ([2]; MRSA 616, Phase I, 1st, read-out: MIC): 8 mg/L (≈ 23.9 µM)
MIC ([2]; MRSA 718, Phase I, 2nd, read-out: MIC): 8 mg/L (≈ 23.9 µM)
MIC ([2]; MRSA 747, Phase I, 1st, read-out: MIC): 8 mg/L (≈ 23.9 µM)
MIC ([2]; bioassay ranking, read-out: MRSA): 3 mg/L (≈ 8.98 µM)
MIC (μg/ml) at 24 hours, MRSA 2 ([2]; isolate MRSA 2, 24 hours, 1st and 2nd replicate rows): 2 µg/mL (≈ 5.98 µM)
